Data on 33 compounds can be found in ChEMBL document CHEMBL4732047, “New imidazopyridines with phosphodiesterase 4 and 7 inhibitory activity and their efficacy in animal models of inflammatory and autoimmune diseases” (Eur J Med Chem, 2021).

Test [1] has as its target 3',5'-cyclic-AMP phosphodiesterase 4B (Homo sapiens, UniProt Q07343). Kind of test: Inhibition of human recombinant PDE4B using cAMP as substrate incubated for 20 mins measured by Kinase Glo reagent based microplate reader assay. In general terms: Kinase-Glo reads ATP consumption through a luciferase reaction.
Test [2] concerns the target High affinity 3',5'-cyclic-AMP phosphodiesterase 7A (Homo sapiens, UniProt Q13946). Kind of test: Inhibition of human recombinant PDE7A using cAMP as substrate incubated for 20 mins measured by Kinase Glo reagent based microplate reader assay.
Test [3] deals with Dual specificity calcium/calmodulin-dependent 3',5'-cyclic nucleotide phosphodiesterase 1B (Homo sapiens, UniProt Q01064). Kind of test: Inhibition of human recombinant PDE1B using cAMP as substrate incubated for 20 mins measured by Kinase Glo reagent based microplate reader assay.
Dual specificity calcium/calmodulin-dependent 3',5'-cyclic nucleotide phosphodiesterase 1B, sequence (Q01064 whole entry): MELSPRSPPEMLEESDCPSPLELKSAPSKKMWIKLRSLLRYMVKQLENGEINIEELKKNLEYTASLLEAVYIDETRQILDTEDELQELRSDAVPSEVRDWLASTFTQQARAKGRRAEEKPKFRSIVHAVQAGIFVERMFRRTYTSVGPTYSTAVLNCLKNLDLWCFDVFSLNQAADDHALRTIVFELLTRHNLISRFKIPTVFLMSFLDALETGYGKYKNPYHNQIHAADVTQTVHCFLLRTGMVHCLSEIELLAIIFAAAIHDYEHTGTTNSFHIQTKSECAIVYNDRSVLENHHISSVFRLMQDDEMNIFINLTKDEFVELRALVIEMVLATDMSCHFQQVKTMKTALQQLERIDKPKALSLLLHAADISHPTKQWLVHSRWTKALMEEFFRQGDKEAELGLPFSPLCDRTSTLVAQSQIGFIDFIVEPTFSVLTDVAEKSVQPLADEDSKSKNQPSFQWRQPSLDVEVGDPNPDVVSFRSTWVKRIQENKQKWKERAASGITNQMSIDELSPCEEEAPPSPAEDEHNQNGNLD
Test [4] has as its target cAMP and cAMP-inhibited cGMP 3',5'-cyclic phosphodiesterase 10A (Homo sapiens, UniProt Q9Y233). Description: Inhibition of human recombinant PDE10A using cAMP as substrate incubated for 20 mins measured by Kinase Glo reagent based microplate reader assay.
Test [5] addresses cGMP-dependent 3',5'-cyclic phosphodiesterase (Homo sapiens, UniProt O00408). Kind of test: Inhibition of human recombinant PDE2A using cGMP as substrate incubated for 20 mins measured by Kinase Glo reagent based microplate reader assay.
Test [6] addresses cGMP-inhibited 3',5'-cyclic phosphodiesterase 3A (Homo sapiens, UniProt Q14432). Description: Inhibition of human recombinant PDE3A using cAMP as substrate incubated for 20 mins measured by Kinase Glo reagent based microplate reader assay.
For test [7], the target named is 3',5'-cyclic-AMP phosphodiesterase 4D (Homo sapiens, UniProt Q08499). Description: Inhibition of human recombinant PDE4D using cAMP as substrate incubated for 20 mins measured by Kinase Glo reagent based microplate reader assay.
3',5'-cyclic-AMP phosphodiesterase 4D, sequence (Q08499 whole entry): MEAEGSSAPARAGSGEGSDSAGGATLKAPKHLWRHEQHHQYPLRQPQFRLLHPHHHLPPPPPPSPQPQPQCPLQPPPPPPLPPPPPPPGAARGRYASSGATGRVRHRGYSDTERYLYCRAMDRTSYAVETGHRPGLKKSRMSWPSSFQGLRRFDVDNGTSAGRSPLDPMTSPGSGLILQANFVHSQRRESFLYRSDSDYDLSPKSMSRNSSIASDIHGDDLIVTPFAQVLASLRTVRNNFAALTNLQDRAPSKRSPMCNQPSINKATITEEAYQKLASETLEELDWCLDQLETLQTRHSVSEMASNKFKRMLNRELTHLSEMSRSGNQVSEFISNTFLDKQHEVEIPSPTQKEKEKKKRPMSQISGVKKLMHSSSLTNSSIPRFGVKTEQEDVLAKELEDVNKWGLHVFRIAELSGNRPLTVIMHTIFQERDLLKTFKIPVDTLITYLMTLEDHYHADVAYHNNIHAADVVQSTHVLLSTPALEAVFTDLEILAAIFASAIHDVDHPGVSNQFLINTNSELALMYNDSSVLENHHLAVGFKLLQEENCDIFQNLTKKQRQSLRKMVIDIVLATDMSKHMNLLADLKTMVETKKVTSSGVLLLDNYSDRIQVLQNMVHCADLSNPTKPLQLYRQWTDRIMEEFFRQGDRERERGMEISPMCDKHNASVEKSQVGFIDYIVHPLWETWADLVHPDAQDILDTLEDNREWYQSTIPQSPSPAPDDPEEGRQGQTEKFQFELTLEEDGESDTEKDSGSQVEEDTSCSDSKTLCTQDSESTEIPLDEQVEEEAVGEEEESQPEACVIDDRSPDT
The target in test [8] is cGMP-specific 3',5'-cyclic phosphodiesterase (Homo sapiens, UniProt O76074). Description: Inhibition of human recombinant PDE5A using cGMP as substrate incubated for 20 mins measured by Kinase Glo reagent based microplate reader assay.
A short description of test [9]: Selectivity index, ratio of IC50 for inhibition of human recombinant PDE4D to IC50 for inhibition of human recombinant PDE4B.
A short description of test [10]: Selectivity index, ratio of IC50 for inhibition of human recombinant PDE3A to IC50 for inhibition of human recombinant PDE4B.
Test [11] deals with Mus musculus. Kind of test: Hepatoprotective activity in ConA-induced BALB/c hepatitis mouse model assessed as decrease in serum IL-6 level at 50 mg/kg, ip administration and measured after 8 hrs relative to control. Format: functional, organism-based.
Test [12] concerns Mus musculus. Description: Hepatoprotective activity in ConA-induced BALB/c hepatitis mouse model assessed as decrease in serum alanine aminotransferase level at 50 mg/kg, ip administration and measured after 8 hrs relative to control. In kind it is functional, organism-based.
Test [13] concerns Mus musculus. Kind of test: Hepatoprotective activity in ConA-induced BALB/c hepatitis mouse model assessed as decrease in serum aspartate aminotransferase level at 50 mg/kg, ip administration and measured after 8 hrs relative to control. Format: functional, organism-based.
Test [14] has as its system Mus musculus. Description: Hepatoprotective activity in ConA-induced BALB/c hepatitis mouse model assessed as decrease in serum alanine aminotransferase level at 10 mg/kg, ip administration and measured after 8 hrs relative to control. In kind it is functional, organism-based.
For test [15], the system named is Mus musculus. Kind of test: Hepatoprotective activity in ConA-induced BALB/c hepatitis mouse model assessed as decrease in serum aspartate aminotransferase level at 10 mg/kg, ip administration and measured after 8 hrs relative to control. In kind it is functional, organism-based.
Test [16] concerns Mus musculus. Kind of test: Hepatoprotective activity in ConA-induced BALB/c hepatitis mouse model assessed as decrease in serum IFNgamma level at 50 mg/kg, ip administration and measured after 8 hrs relative to control. In kind it is functional, organism-based.
In test [17] the test system is Mus musculus. Kind of test: Hepatoprotective activity in ConA-induced BALB/c hepatitis mouse model assessed as decrease in serum IL-6 level at 10 mg/kg, ip administration and measured after 8 hrs relative to control. Format: functional, organism-based.
Test [18] relates to Mus musculus. Kind of test: Hepatoprotective activity in ConA-induced BALB/c hepatitis mouse model assessed as decrease in serum IFNgamma level at 10 mg/kg, ip administration and measured after 8 hrs relative to control. Format: functional, organism-based.
Test [19] relates to Rattus norvegicus. Description: Antiinflammatory activity in LPS-induced Wistar rat endotoxemia model assessed as decrease in plasma TNFalpha level at 5 mg/kg, ip measured after 1 hr. Further details: scale not given: the % may be the effect or the level left. In kind it is functional.
The subject of test [20] is Rattus norvegicus. Kind of test: Antiinflammatory activity in LPS-induced Wistar rat endotoxemia model assessed as decrease in plasma TNFalpha level at 5 mg/kg, ip measured after 1.5 hr. In kind it is functional. Further details: scale not given: the % may be the effect or the level left.
Test [21] deals with Rattus norvegicus. Kind of test: Antiinflammatory activity in LPS-induced Wistar rat endotoxemia model assessed as decrease in plasma TNFalpha level at 5 mg/kg, ip measured after 2 hr. Details: scale not given: the % may be the effect or the level left. Format: functional.

Molecules are shown by their SMILES. Active and inactive are the calls of the source. The calls are words filed in the database; no cut-off is given here.

High affinity 3',5'-cyclic-AMP phosphodiesterase 7A, sequence (Q13946 whole entry): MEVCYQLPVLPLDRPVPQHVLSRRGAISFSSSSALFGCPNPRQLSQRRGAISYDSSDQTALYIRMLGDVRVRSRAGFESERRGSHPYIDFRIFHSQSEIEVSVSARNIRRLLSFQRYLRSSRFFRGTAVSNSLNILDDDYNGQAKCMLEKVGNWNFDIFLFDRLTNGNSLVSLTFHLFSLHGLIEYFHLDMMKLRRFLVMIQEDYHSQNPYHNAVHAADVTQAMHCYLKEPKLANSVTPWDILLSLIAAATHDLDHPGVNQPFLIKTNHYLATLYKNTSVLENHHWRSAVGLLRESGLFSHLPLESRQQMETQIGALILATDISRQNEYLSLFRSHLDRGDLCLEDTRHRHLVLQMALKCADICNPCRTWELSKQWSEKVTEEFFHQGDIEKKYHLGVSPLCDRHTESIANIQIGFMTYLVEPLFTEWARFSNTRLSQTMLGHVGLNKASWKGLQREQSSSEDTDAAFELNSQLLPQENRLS
cGMP-dependent 3',5'-cyclic phosphodiesterase, sequence (O00408 whole entry): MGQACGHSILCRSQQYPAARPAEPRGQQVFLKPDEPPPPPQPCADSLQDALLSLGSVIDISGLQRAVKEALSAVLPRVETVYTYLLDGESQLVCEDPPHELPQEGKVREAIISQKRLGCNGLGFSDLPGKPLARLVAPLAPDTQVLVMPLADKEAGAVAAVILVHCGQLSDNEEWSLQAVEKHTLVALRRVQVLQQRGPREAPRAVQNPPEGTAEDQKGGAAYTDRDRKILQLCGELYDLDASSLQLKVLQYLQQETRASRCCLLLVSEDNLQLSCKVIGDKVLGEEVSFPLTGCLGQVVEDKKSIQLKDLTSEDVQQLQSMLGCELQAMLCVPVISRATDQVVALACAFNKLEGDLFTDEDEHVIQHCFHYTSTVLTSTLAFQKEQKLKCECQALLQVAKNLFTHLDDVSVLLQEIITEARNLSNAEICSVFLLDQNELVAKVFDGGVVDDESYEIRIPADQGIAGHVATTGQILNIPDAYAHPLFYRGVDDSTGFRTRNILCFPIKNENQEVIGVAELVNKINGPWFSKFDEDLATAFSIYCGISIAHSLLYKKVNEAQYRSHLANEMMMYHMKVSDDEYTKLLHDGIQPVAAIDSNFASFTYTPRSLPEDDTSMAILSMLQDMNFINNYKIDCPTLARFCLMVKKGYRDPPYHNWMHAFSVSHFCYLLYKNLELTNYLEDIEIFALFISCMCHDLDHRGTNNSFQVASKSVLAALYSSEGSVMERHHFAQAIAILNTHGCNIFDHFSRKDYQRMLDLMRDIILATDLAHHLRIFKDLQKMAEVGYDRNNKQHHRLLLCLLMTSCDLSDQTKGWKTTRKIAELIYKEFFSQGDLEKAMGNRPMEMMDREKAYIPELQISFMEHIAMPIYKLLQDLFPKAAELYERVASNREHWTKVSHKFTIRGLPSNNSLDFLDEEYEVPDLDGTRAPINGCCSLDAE
3',5'-cyclic-AMP phosphodiesterase 4B, sequence (Q07343 whole entry): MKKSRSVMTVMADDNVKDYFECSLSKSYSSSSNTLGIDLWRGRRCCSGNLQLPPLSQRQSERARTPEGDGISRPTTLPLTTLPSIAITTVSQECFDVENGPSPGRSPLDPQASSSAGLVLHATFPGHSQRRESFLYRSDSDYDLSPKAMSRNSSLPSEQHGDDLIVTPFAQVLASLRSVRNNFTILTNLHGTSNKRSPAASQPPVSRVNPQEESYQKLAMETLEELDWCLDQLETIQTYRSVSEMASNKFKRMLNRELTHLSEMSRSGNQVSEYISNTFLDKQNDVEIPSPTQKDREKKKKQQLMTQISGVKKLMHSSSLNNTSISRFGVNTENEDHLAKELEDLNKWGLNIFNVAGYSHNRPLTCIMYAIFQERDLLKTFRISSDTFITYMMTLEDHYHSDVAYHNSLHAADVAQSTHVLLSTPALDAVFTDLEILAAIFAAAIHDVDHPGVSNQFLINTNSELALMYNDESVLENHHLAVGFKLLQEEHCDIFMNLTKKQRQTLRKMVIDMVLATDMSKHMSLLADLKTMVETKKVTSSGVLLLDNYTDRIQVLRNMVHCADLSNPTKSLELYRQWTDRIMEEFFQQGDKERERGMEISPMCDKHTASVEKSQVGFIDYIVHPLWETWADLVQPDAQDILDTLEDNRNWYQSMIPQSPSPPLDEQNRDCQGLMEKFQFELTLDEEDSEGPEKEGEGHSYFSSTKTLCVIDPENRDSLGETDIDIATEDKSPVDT
cGMP-inhibited 3',5'-cyclic phosphodiesterase 3A, sequence (Q14432 whole entry): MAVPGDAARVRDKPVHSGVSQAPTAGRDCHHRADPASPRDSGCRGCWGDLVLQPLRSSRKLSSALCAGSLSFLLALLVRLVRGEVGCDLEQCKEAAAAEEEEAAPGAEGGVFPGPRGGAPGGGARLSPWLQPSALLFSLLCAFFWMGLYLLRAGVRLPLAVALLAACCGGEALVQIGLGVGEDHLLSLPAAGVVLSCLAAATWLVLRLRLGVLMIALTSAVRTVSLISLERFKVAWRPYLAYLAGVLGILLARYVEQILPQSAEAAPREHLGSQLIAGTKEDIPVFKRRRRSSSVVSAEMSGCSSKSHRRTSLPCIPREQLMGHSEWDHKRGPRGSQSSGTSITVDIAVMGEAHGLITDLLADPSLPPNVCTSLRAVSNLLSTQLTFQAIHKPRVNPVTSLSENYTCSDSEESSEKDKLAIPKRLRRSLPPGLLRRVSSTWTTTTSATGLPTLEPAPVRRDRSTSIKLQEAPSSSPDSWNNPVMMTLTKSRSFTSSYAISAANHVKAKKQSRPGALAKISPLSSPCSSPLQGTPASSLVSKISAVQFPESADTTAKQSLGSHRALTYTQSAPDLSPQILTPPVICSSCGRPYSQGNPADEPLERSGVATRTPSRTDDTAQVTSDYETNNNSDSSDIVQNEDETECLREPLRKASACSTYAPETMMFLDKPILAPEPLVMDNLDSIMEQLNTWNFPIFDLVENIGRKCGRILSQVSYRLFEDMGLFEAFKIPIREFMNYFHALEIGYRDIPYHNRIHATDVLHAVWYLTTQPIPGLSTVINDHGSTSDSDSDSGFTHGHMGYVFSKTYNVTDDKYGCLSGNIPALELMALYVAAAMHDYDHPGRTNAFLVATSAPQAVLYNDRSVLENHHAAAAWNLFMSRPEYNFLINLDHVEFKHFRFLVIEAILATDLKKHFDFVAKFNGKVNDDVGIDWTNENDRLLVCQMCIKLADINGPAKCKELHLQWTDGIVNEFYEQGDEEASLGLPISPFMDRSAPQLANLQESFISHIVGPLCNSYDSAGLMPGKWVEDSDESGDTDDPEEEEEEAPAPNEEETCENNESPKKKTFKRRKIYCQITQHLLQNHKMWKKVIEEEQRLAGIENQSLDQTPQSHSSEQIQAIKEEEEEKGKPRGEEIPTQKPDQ

Broadly, the IC50 is the concentration at which inhibition is half-maximal. For `CCCCCn1c(-c2ccccc2)nc2c(N)ccnc21`, the IC50 in test [1] is 29 µM; in test [2] it was above 200 µM.

Regarding `Nc1ccnc2c1nc(-c1ccccc1)n2CCN1CCCCC1`, the results for the half-inhibitory concentration (IC50) in test [1] and in test [2] were 103 µM and above 200 µM, respectively.

Turning to `CCCCCn1c(-c2ccco2)nc2c(NCc3ccccc3)ccnc21`, the results for the IC50 in test [1] and in [2] were 8.66 µM and above 200 µM, respectively.

On to `CCCCCn1c(-c2ccccc2)nc2c(NCCCO)ccnc21`, for which the IC50 in [1] was 23.2 µM; in test [2] it was above 200 µM.

For `COCCCNc1ccnc2c1nc(-c1ccco1)n2C1CCCC1`, the IC50 in test [1] is 8.6 µM; in [2], 90.5 µM.

As for `CCCCCn1c(-c2ccco2)nc2c(NCc3ccccc3)nccc21`, the concentration for half-maximal inhibition (IC50) in test [1] was 8.34 µM; in test [2], above 200 µM.

For `CCCCCn1c(-c2ccco2)nc2c(NCCCO)ccnc21`, the IC50 worked out at 49.7 µM in test [1] and 63.6 µM in test [2].

As for `CCCCCn1c(-c2ccco2)nc2c(N)ccnc21`, the figures for the half-inhibitory concentration (IC50) in test [1] and in test [2] were 39.9 µM and above 200 µM, respectively.

In the case of `COCCCNc1nccc2c1nc(-c1ccco1)n2C1CCCC1`, the results for the IC50 in test [1] and in test [2] were 19.9 µM and 142 µM, respectively.

`COCCNc1ccnc2c1nc(-c1ccco1)n2C1CCCC1`: the IC50 in test [1] amounted to 5.41 µM; in test [2], 119 µM.

In the case of `Cc1ccc([N+](=O)[O-])cc1S(=O)(=O)N(C)C`, the IC50 in test [2] was 2.32 µM.

As to `CCCCCn1c(-c2ccco2)nc2c(N(C)CCCO)ccnc21`, the half-maximal inhibitory concentration (IC50) in test [1] was found to be 18 µM; in [2], 18.8 µM.

`CCCCCn1c(-c2ccccc2)nc2c(NCc3ccccc3)ccnc21`: the results for the IC50 in test [1] and in test [2] were 16.9 µM and above 200 µM, respectively.

For `CCCCCn1c(-c2ccccc2)nc2c(NCCc3cccs3)ccnc21`, the half-inhibitory concentration (IC50) in [1] was 7.09 µM; in test [2], above 200 µM.

In the case of `CCOC(=O)C1=C[C@]2(CC)CCCN3CCc4c(n1c1ccccc41)[C@@H]32` [VINPOCETINE], the concentration for half-maximal inhibition (IC50) in test [3] was 7.99 µM.

On to `OCCCNc1nccc2c1nc(-c1ccco1)n2C1CCCC1`, for which the IC50 in test [1] is 19 µM; in test [2], above 200 µM.

Regarding `Nc1nc(O)c2nc(Br)n(C3CCCc4cccc(Br)c43)c2n1` (stereo not given), the half-inhibitory concentration (IC50) in [2] was determined as 1.31 µM.

As for `Nc1ccnc2c1nc(-c1ccccc1)n2CCCO`, the values for the IC50 in test [1] and in test [2] were 100 µM and above 200 µM, respectively.

Consider `CCCCCn1c(-c2ccco2)nc2c(NCCCOC)ccnc21`, for which the 50% inhibitory concentration (IC50) in test [4] was found to be 9.97 µM; in [1] it was 3.53 µM; in test [2], 34.2 µM; in test [3], 0.36 µM; in test [5], 6.85 µM; in [6], 40.6 µM. In addition, the 50% inhibitory concentration (IC50) in [7] worked out at 27.2 µM; in test [8], 53.5 µM. Further, the Ratio IC50 is 10 in [9] and above 10 in test [10].

Turning to `CCCCCn1c(-c2ccco2)nc2c(N(C)CCCO)nccc21`, the IC50 was found to be 2.95 µM in test [4]; 3.48 µM in test [1]; 7.24 µM in test [2]; 2.3 µM in [3]; 21.8 µM in [5]; 9.92 µM in test [6]. Moreover, the IC50 in test [7] stood at 25.8 µM; in test [8] it was 2.91 µM. The outcome in test [11] was inactive.

As for `CCCCCC[C@H]([C@H](C)O)n1cnc2c(N)ncnc21` [(+)-EHNA], the IC50 in [5] is 2.62 µM.

On to `CCCCCn1c(-c2ccc(OC)cc2)nc2c(N)ccnc21`, for which the concentration for half-maximal inhibition (IC50) in test [1] was 41.5 µM; in test [2], above 200 µM.

In the case of `CCCCCn1c(-c2ccco2)nc2c(NCCOC)ccnc21`, the IC50 was 9.77 µM in test [1] and above 200 µM in test [2].

`c1coc(-c2nc3c(NCCc4cccs4)ccnc3n2C2CCCC2)c1`: the half-inhibitory concentration (IC50) in test [1] is 3.25 µM; in [2] it was above 200 µM.

For `CCCCCn1c(-c2ccco2)nc2c(NCCCOC)nccc21`, the IC50 in test [1] was determined as 12.6 µM; in test [2] it was 83.3 µM.

As to `CCCCCn1c(-c2ccccc2)nc2c(NCCc3cccs3)nccc21`, the IC50 was 15.6 µM in [1] and above 200 µM in test [2].

`CCCCCn1c(-c2ccccc2)nc2c(NCc3ccccc3)nccc21`: the 50% inhibitory concentration (IC50) in test [1] is 102 µM; in test [2], above 200 µM.

Consider `c1coc(-c2nc3c(NCCc4cccs4)nccc3n2C2CCCC2)c1`, for which the IC50 in test [1] is 2.8 µM; in [2] it was above 200 µM.

`CNc1nc(C(F)(F)F)nc2c1ncn2Cc1ccccc1F`: the concentration for half-maximal inhibition (IC50) in [1] was found to be 0.042 µM.

Take `CCCCCn1c(-c2ccccc2)nc2c(NCCCO)nccc21`: the IC50 in test [1] was 60 µM; in [2], above 200 µM.

Take `COCCNc1nccc2c1nc(-c1ccco1)n2C1CCCC1`: the values for the half-inhibitory concentration (IC50) in test [1] and in test [2] were 18.1 µM and 192 µM, respectively.

Turning to `COc1ccc(C2CNC(=O)C2)cc1OC1CCCC1` (stereo not given) [ROLIPRAM], the outcome in test [12], in test [13], in test [14], in test [15], in [11] and in test [16] was Active. Besides, the result in [17] and in test [18] was Active. For the same compound, the figures for the Activity in test [19], in test [20] and in test [21] were 85.6%, 73.5% and 77.1%, respectively.

With `CCCCCn1c(-c2ccc([N+](=O)[O-])cc2)nc2c(N)ccnc21`, the IC50 in test [1] and in [2] was above 200 µM each time.
